For data set [1] the following is noted: in vivo. Here is the method:
Diflunisal was administered PO and animals were euthanized at the indicated times post-dose. After peripheral blood collection, animals were perfused with 1×PBS to remove blood in the brain vasculature. Total plasma and brain levels of diflunisal were evaluated by LC-MS/MS and then converted to free drug levels after measurement of binding in mouse plasma and brain.
Diflunisal pharmacokinetics: Diflunisal levels in mouse plasma and brain were monitored by LC-MS/MS using an AB Sciex (Framingham, MA) 4000 QTRAP® mass spectrometer coupled to a Shimadzu (Columbia, MD) Prominence LC. Diflunisal was detected with the mass spectrometer in negative MRM (multiple reaction monitoring) mode by following the precursor to fragment ion transitions 248.9 to 204.9 (quantifier ion) and 248.9 to 184.9 (qualifier ion). An Agilent C18 XDB column (5 micron, 50×4.6 mm) was used for chromatography for PK studies with the following conditions: Buffer A: dH20+0.1% formic acid, Buffer B: acetonitrile+0.1% formic acid, 0-1.0 min 5% B, 1.0-1.5 min gradient to 100% B, 1.5-3.0 min 100% B, 3.0-3.2 min gradient to 5% B, 3.2-4.5 5% B. Tolbutamide (transition 269.1 to 169.9) from Sigma (St. Louis, MO) was used as an internal standard (IS). Pharmacokinetic studies were performed by injecting 8 week old C57BL/6J male mice with diflunisal formulated in 10% DMSO, 20% Kolliphor EL, 70% saline. 60 or 180 minutes post-dose, animals were anesthetized with ketamine (100 mg/kg) and xylazine (10 mg/kg) via intraperitoneal (IP) injection. Blood was collected using the anticoagulant ACD, and then brains were harvested after transcardial perfusion with 1×PBS. Tissues were weighed before snap freezing and blood spun at 9600×g to collect plasma which was stored frozen along with brain tissue at −80° C. until analysis. […] The concentration of drug in each time-point sample was quantified using Analyst software (Sciex). […] The limit of quantitation (LOQ) was defined as the lowest concentration at which back calculation yielded a concentration within 20% of theoretical.

Data set [2] is described as follows: Diflunisal protein binding by rapid equilibrium dialysis. The data set is classed as in vitro ADME, mouse. The following applies: diluted 1:20 (final) with PBS, 37° C. Here is the method:
(§1) Diflunisal protein binding: Protein binding of diflunisal in mouse plasma or brain homogenate was determined by rapid equilibrium dialysis using RED chambers (Thermo Scientific, Waltham, MA). On the day of the RED experiment, frozen mouse plasma and 4× homogenized brain was thawed in a water bath at 37° C. Then it was equilibrated for 45 minutes at 37° C. in an atmosphere of 5% CO2. The pH of PBS was confirmed within 7.4±0.1. The pH of plasma and brain was measured and adjusted to 7.4±0.1 using concentrated acid or base. Plasma and brain diluted at 1:20 (final) with PBS and used for all subsequent steps. An aliquot of plasma or brain was spiked with compound to a compound concentration of 5 μM and vortex mixed. […] Donor, dialysate, and plasma or brain stability samples were analyzed by using a matrix matching approach whereby each sample was mixed in a 1:1 ratio with the opposite medium (blank matrix or PBS). […] Diflunisal levels in both chambers were measured by LC-MS/MS in comparison to a standard curve prepared in 1:1 matrix: PBS as described above. For each matrix, stability was assessed by maintaining individual aliquots of compound-spiked matrix at 37° C. and 5% CO2 for 0 and 6 hours. […] Stability of diflunisal in plasma and brain was 99% over 6 hours as assessed by LC-MS/MS. Fraction unbound (fu) was determined based on the following equations: […]
Background: Equilibrium dialysis compares concentrations on both sides of a semipermeable membrane.

Data set [3] is described as follows: Diflunisal stability in plasma and brain homogenate. It counts as in vitro ADME. The following applies: mouse plasma and brain homogenate, 37° C., 5% CO2, over 6 hours. Here is the method: as §1
The subject of a further data set is clinically-diagnosed TBI. Kind of data set: Pharmacoepidemiologic cohort analysis (MarketScan Medicare Supplemental database), incidence of TBI. The data set is classed as in vivo, human. Conditions: vs. PS-matched aspirin cohort, Cox regression model, 6 years of follow-up. The text has this: (§2) Because ac-tau has been generally reported in the brains of subjects with AD, we evaluated the relationship between salsalate or diflunisal use and incidence of clinically-diagnosed TBI or AD by analyzing 7.23 million U.S. commercially-insured individuals (MarketScan Medicare Supplemental database). We conducted two cohort analyses to evaluate the predicted association, based on individual level of longitudinal patient data and pharmacoepidemiologic methods, as previously established (Cheng et al., 2018). Thus, our two cohorts included: (1) salsalate vs. a matched aspirin population and (2) diflunisal vs. a matched aspirin population (Table 2). For each comparison, we estimated the un-stratified Kaplan-Meier curves and conducted propensity score (PS) stratified (n strata=10) log-rank tests and a Cox regression model after adjusting age, race, sex, and disease comorbidities (including diabetes, hypertension, and coronary artery disease) using a propensity score-matching method (Methods).
Study cohorts. The IBM® MarketScan® Medicare Supplemental Database is one of the first in the U.S. to profile the healthcare experience of retirees with Medicare supplemental insurance paid by employers. The MarketScan Medicare Supplemental Database provides detailed cost, use and outcomes data for healthcare services performed in both inpatient and outpatient settings. […]

The subject of another data set is Alzheimer's disease. Nature of the data set: Pharmacoepidemiologic cohort analysis (MarketScan Medicare Supplemental database), incidence of AD. It counts as in vivo, human.
Excerpt: as §2
Study cohorts. The IBM® MarketScan® Medicare Supplemental Database is one of the first in the U.S. to profile the healthcare experience of retirees with Medicare supplemental insurance paid by employers. The MarketScan Medicare Supplemental Database provides detailed cost, use and outcomes data for healthcare services performed in both inpatient and outpatient settings. For most of the population, the medical claims are linked to outpatient prescription drug claims and person-level enrollment data through the use of unique patient or enrollee identifiers. […] This feature makes the database a robust tool for pharmacoeconomic and outcomes research and helps provide insight into the drug use and spending patterns of older Americans. In this study, the pharmacoepidemiology study utilized the MarketScan Medicare Claims database from 2012 to 2017. The dataset included individual-level diagnosis codes, procedure codes and pharmacy claim data for 7.23 million patients. Pharmacy prescriptions of salsalate, diflunisal, and aspirin were identified by using RxNorm and National Drug Code (NDC).
Outcome measurement. For a subject, a drug episode is defined as from drug initiation to drug discontinuation. Specifically, drug initiation is defined as the first day of drug supply (i.e. 1st prescription date). Drug discontinuation is defined as the last day of drug supply (i.e. last prescription date+days of supply) and without drug supply for the next 60 days. In another word, gaps of less than 60-day of drug supply were allowed within a drug episode. The drug cohort included the first drug episode for each subject. For the final cohorts, demographic variables including age, race, sex and geographical location were collected. […]

For data set [4] the following is noted: 500 mg diflunisal twice daily for 11 days; cited from earlier work.
In the next data set the test system is p300/CBP. Conditions: literature (Shirakawa et al., 2016); cited from earlier work.

As a reminder, the fraction unbound is the share of the substance not bound to proteins or other matrix.

Read-outs that look alike come from different tables or passages of the source.

Consider `O=C(O)c1cc(-c2ccc(F)cc2F)ccc1O` [diflunisal], for which the “penetration into mouse brain” value in data set [1] is reported as “modest penetration of diflunisal into mouse brain”. In data set [1] (male, C57BL/6J, mouse), the “free drug plasma to brain ratio” value is listed as 55:1 and the “total diflunisal plasma to brain ratio” value was “about 200:1”. Further, the fraction unbound at 6 h, 5 μM in data set [2] (pH 7.4, mouse brain homogenate, read-out: fraction unbound in brain tissue (fubrain)) was 0.05 ± 0.001. Moreover, the fraction unbound at 6 h, 5 μM in data set [2] (pH 7.4, mouse plasma, read-out: fraction unbound in plasma (fuplasma)) came out at 0.014 ± 0.002. In addition, the “stability in plasma and brain” value in data set [3] was determined as 99%. For the same molecule, in the data set with clinically-diagnosed TBI, the “hazard ratio [HR], clinically-diagnosed TBI” value amounted to 0.61. The “incidence of AD, subgroup analysis” value with Alzheimer's disease (excluding patients with type 2 diabetes, hypertension, or coronary artery disease, vs. aspirin) is listed as “associated with decreased incidence of AD”. For the same molecule, the “hazard ratio [HR], AD” value in the data set with Alzheimer's disease (vs. PS-matched aspirin cohort, Cox regression model, 6 years of follow-up) is recorded as 0.17. Also, in data set [4], the mean peak plasma levels in humans is 190 µg/mL. For the same molecule, in the data set on p300/CBP, the “inhibition of p300/CBP” value is given as “demonstrated to inhibit p300/CBP”.

Values taken from patent US20240201204A1, “Biomarker and Druggable Target of Neurodegeneration” (University Hospitals Cleveland Medical Center, priority 2020, published 2024).
